For 11 compounds, IC50 results are on record in BindingDB's records for doi:10.1021/np800491u (Korean Research Institute of Biosciences and Biotechnology, 2009).

The test can be described thus: Inhibition of hypoxia-induced HIF1alpha protein accumulation in human Hep3B cells treated for 30 mins measured after 12 hrs by Western blot analysis. (In general: Immunoblotting shows a protein as a band on a membrane.)
As a reminder, the IC50 is the concentration that inhibits the measured activity by half. Turning to `CC(C)=CCC/C(C)=C/Cc1c(O)cc(O)cc1-c1cc2ccc(O)cc2o1` [albafuran A], the IC50 came out at 3510 nM.

`CC(C)=CC[C@]12Oc3cc(O)c([C@H]4C=C(C)C[C@H](c5ccc(O)cc5O)[C@H]4C(=O)c4ccc(O)cc4O)c(O)c3C(=O)[C@@]1(O)Oc1cc(O)ccc12` [sanggenon C] gave an IC50 of 1260 nM.

For the compound `CC1=C[C@H]2c3c(O)cc(-c4cc5ccc(O)cc5o4)cc3O[C@@]3(c4ccc(O)cc4O)Oc4cc(O)ccc4[C@H](C1)[C@@H]23` [CHEBI:2544], the IC50 worked out at 2600 nM. Against the preceding compound, the IC50 is about 2.1-fold higher.

As for `CC(C)=CCC/C(C)=C/Cc1c(O)ccc2cc(-c3cc(O)cc(O)c3CC=C(C)C)oc12` [mulberrofuran D], the IC50 stood at 4050 nM. Against the preceding compound, the IC50 is about 1.6-fold higher.

For `CC1(C)Oc2cc3oc(-c4cc(O)cc(O)c4)cc3cc2C[C@H]1O` [(-)-Moracin P], the IC50 amounted to 0.65 nM. Against the preceding compound, the IC50 is about 6200-fold lower.

Compound `CC(C)=CC[C@@]12Oc3cc(O)c([C@H]4C=C(C)C[C@H](c5ccc(O)cc5O)[C@H]4C(=O)c4ccc(O)cc4O)c(O)c3C(=O)[C@]1(O)Oc1cc(O)ccc12` [Sanggenon O] yielded an IC50 of 1030 nM.

For the compound `CC(C)=CCC/C(C)=C\CC/C(C)=C\Cc1c(O)cc(O)cc1-c1cc2ccc(O)cc2o1` [mulberrofuran W], the half-inhibitory concentration (IC50) was determined as 3620 nM.

In turn, `Oc1cc(O)cc(-c2cc3ccc(O)cc3o2)c1` [moracin M] displayed an IC50 greater than 50000 nM.

The compound `COc1c(O)cc2oc(-c3cc(O)cc(O)c3)cc2c1CC(=O)C(C)C` [Moracin Q] had an IC50 of 5880 nM. This lies in the single-digit micromolar range.

Take `C[C@@]12C=C(c3c(O)cc(-c4cc5ccc(O)cc5o4)cc3O)C[C@@H](C1)c1ccc(O)cc1O2` [Mulberrofuran H]: 140 nM corresponded to half-maximal inhibition (IC50).

`CC(C)(O)C1Cc2cc3cc(-c4cc(O)cc(O)c4)oc3cc2O1` (stereo unspecified) [moracin O] displayed an IC50 of 0.14 nM.
